The text below walks through data of US8664221B2 (Santen Pharmaceutical Co., Ltd., priority 2008, dated 2014).

The subject of assay [1] is IL-6 production induced by lipopolysaccharide (LPS) in human corneal epithelial cells (HCE-T). As to the kind of experiment: Inhibition of LPS-induced IL-6 production in human corneal epithelial cells (GR agonist activity). The class given is cell-based. The following applies: Corneal epithelial cell, 10 μL of 100 μM test compound solution per well, 4 hours incubation, efficacy relative to DEX. The procedure:
In order to evaluate a GR agonist activity of the present compound, the inhibitory effects on the IL-6 production induced by lipopolysaccharide (LPS) in human corneal epithelial cells. IL-6 levels in the conditioned medium were measured using the HTRF human IL-6 Kit (boehringer-Ingelheim, Cat No. 62IL6PEB), and the procedure was carried out according to the protocol attached to the kit. Hereinafter, the specific method will be described.
LPS solution: After LPS was dissolved in phosphate buffer solution (hereinafter referred to as PBS(−)), the resulting solution was diluted with 10% FBS-DMEM/F12 medium, whereby a 1 μg/mL LPS solution was prepared.
After a test compound was dissolved in dimethylsulfoxide (hereinafter referred to as DMSO), the resulting solution was diluted with 10% FBS-DMEM/F12 medium, whereby a 100 μM test compound solution was prepared. A 100 μM DEX solution was prepared by the same method, and the inhibitory ratio of IL-6 production of DEX was evaluated to use for calculating efficacy (% DEX).
Used cell: SV40-immortalized human corneal epithelial cells (HCE-T) (RIKEN)
1) HCE-T cells were harvested, and seeded at 2.0×10^4 cells/0.1 mL/well in a 96-well plate.
2) After incubation overnight, the medium was removed and a 80 μL of new 10% FBS-DMEM/Ham's F12 medium was added into each well.
3) A 10 μL of test compounds solution was added into each well.
4) A 10 μL of LPS solution was added into each well.
5) As a negative control, a 10 μL of 10% FBS-DMEM/Ham's F12 medium was added into each well instead of a test compound solution and a LPS solution.
6) As a positive control, a 10 μL of 10% FBS-DMEM/Ham's F12 medium containing 1% DMSO was added into each well instead of a test compound solution.
7) After 4 hours incubation, supernatants were collected and IL-6 levels in the supernatants were quantitated using the HTRF human IL-6 Kit.
8) The inhibition ratio of IL-6 production (%) was calculated according to the following equation.
The inhibition ratio of IL-6 production (%) was calculated according to the following equation. The inhibition ratio of IL-6 production (%)=100×{1−(IL-6 level in each group−mean value of IL-6 level in negative control)/(mean value of IL-6 level in positive control−mean value of IL-6 level in negative control)} (%)
Furthermore, the inhibition ratio of IL-6 production (efficacy (% DEX)) was also calculated according to the following equation. Efficacy(% DEX)=100×{(mean value of IL-6 inhibition in compound-treated group)/(mean value of IL-6 inhibition in DEX-treated group)} (%) (Results and Discussion)

Assay [2] concerns allergic conjunctivitis model in mice. As to the kind of experiment: Inhibitory effect on vascular hyper-permeability in allergic conjunctivitis model. The class given is in vivo. Conditions: male BALB/c mice, ovalbumin-sensitized; 1% (W/V) suspension instilled 15 min, 1 hr and 3 hrs before ovalbumin; Evans blue dye leakage; mean of 6 eyes. As for the experimental part:
In order to evaluate anti-allergic effect of the present compound, the inhibitory effect on the vascular hyper-permeability in allergic conjunctivitis model in mice was examined. This effect was calculated based on dye leakages of vehicle-treated group (control group) and test compound-treated group.
By adding 0.5% polysorbate 80/saline to the test compound, a 1% (W/V) test compound suspension was prepared.
1) Ovalbumin absorbed on aluminum hydroxide gel was dissolved in saline (20 μg ovalbumin/mL), and male BALB/c mice, 6 weeks old, were actively sensitized to the antigen by intraperitoneal injections of 500 μL of it.
2) On the 6th day from sensitization, sensitized mice were boosted by additional intraperitoneal injections of 500 μL ovalbumin absorbed on aluminum hydroxide gel (20 μg ovalbumin/mL).
3) On the 11th day, 12th day, 13th day, 14th day and 15th day from the first sensitization, allergic conjunctivitis were induced by instillations to the right eyes of the mice of […] of 50% glycerol solution containing 15% (W/V) ovalbumin.
4) […] of test compound suspension per eye was instilled to the right eye of the above mice 15 min, 1 hr and 3 hrs before ovalbumin instillation (three times) on the 15th day from sensitization. In vehicle-treated group (control group), the mice were instilled with 0.5% polysorbate 80/saline in substitution for test compound suspension.
5) Just before ovalbumin instillation on the 15th day from sensitization, all animals received a tail intravenous injection of 0.1% Evans blue dye. The right periocular tissues of the mice, which were the leaked parts of dye, were collected 30 min after ovalbumin instillation. The dye was extracted from the tissues with the dye extraction liquid. Then the absorbance of the dye extract was measured. The dye leakage was calculated from the absorbance value, and the inhibition ratio of the vascular hyper-permeability of test compound-treated group was calculated according to calculation equation 1. The inhibition ratio of the vascular hyper-permeability of test compound-treated group (%)=(1−Ax/Ao)×100 (Calculation Equation 1) • Ao: Dye leakage in vehicle-treated group (control group) • Ax: Dye leakage in test compound-treated group (Test Results and Discussion)

The subject of assay [3] is choroidal neovascularization (CNV) model in rats. The experiment in a line: Laser induced choroidal neovascularization model. The following applies: Brown Norway male rats; 1% (w/v) eye drops four times a day or 20 mg/mL subconjunctival injection (route not given); fluorescein angiography 7 days after laser; mean of 7-8 eyes. Type of assay: in vivo. The procedure:
The choroidal neovascularization (CNV) model in rats is known as one of the popular methods for evaluating the CNV inhibitory effect of drugs. This method is reported in Graefe's Arch. Cli. Exp. Ophthalmol., 235, 313-319 (1997). According to this method, the CNV examinations were performed to evaluate the CNV inhibitory effect of test compounds by comparing the incidence rates of CNV in vehicle group (control group) with test compound-treated groups.
For eye drop administration, a 1% (w/v) test compound suspension was prepared by adding 0.5% polysorbate 80/saline to the test compound. For subconjunctival injection, a 20 mg/mL test compound suspension was prepared by adding 0.5% hydrogenated castor oil/saline to the test compound.
1) Brown Norway male rats (7-8 weeks) were anesthetized with intramuscular injection (1 mL/kg) of the mixed solution (5% ketamine HCl:2% xylazine HCl=7:1).
2) After mydriasis using tropicamide phenylephrine hydrochloride eye drops (trade name Mydrin P), laser photocoagulation of bruch's membrane in rats was performed with krypton laser photocoagulation machine. Laser irradiation was performed at 8 points per eye avoiding thick retinal blood vessels in ocular fundus and focusing on the depth of retina. The conditions were 100 μm spot size, 100 mW power, 0.1 second duration.
3) After laser photocoagulation, photographs of ocular fundus were taken and the laser photocoagulation (laser irradiation) points were confirmed.
1) In case of eye drops administration, a test compound suspension was administrated four times a day from laser irradiation day (the 1st day) to the 8th day. In case of subconjunctival injection, a 50 μL test compound suspension was injected into conjunctivae just after laser irradiation.
2) In vehicle group (control group), 0.5% polysorbate 80/saline or 0.5% hydrogenated castor oil/saline was used instead of a test compound suspension. And the test was performed according to the method 1).
1) 7 days after laser irradiation, 0.1 mL of 10% fluorescein was injected into rat tail vein and fluorescein angiography was performed.
2) When the fluorescent leakage was not detected in the fluorescent angiography, the spot was judged to be a negative spot. When the fluorescent leakage was detected, the spot was judged to be a positive spot. When the fluorescent leakage was detected as a little leakage, two spots were counted as one positive spot.
3) The neovascular incidence rate was calculated according to the equation 1. According to the equation 2, the ratio of neovascular incidence rate in test compound group to vehicle group was calculated. Neovascular incidence rate (%)=(Positive spots/all spots)×100 (Equation 1) Angiogenic inhibition ratio in test compound group (%)=(1−Ax/Ao)×100 (Equation 2)
Ao: Neovascular incidence rate in vehicle group (control group)
Ax: Neovascular incidence rate in test compound group

The test system of assay [4] is carrageenan-induced paw edema model in rats. The experiment in a line: Carrageenan-induced paw edema model. Type of assay: in vivo. The following applies: female Lewis rat; 10 mg/kg oral, 30 minutes before carrageenan; paw volume 3 hr after injection; read-out: Inhibition ratio of paw edema (%). The procedure:
The inhibitory effect for paw edema using carrageenan-induced paw edema model in rats is known as one of the general methods for testing the inhibitory effect on inflammation on the joint and the like. Therefore, the inhibitory effect of the present compound for paw edema was carried out, the inhibition rate of paw edema was calculated, and then the anti-inflammatory effect of the present compound was evaluated based on the rate. The concrete method of the test is described below.
A 2 mg/mL test compound suspension was prepared by adding 1% methyl cellulose (base) to the test compound.
1) The weight and right hind paw volume of female Lewis rat (8˜10 weeks) were measured before drug administration.
2) The test compound suspension was administered at 10 mg/kg to the test compound group. Meanwhile, 1% methyl cellulose was administered orally at 5 mL/kg to the sham-operation group and vehicle group (control group).
3) After 30 minutes from oral administration, 0.1 mL of a 1% w/v carrageenan/distilled water solution was subcutaneously injected into right foot pad. 0.1 mL of distilled water was subcutaneously injected for sham-operation group.
4) The right hind paw volume was measured 3 hr after injection of carrageenan or distilled water.
(Formulation Concerning Estimation of Drug Activity) The increase ratio of paw volume (%)=100×(right hind paw volume 3 hr after injection of carrageenan or distilled water (mL)−right hind paw volume before the test compound administration (mL))/right hind paw volume before the test compound administration (mL) (Calculation Equation 1) The inhibition ratio of paw edema (%)=100−100×(the increase ratio of paw volume of each test compound group (%)−the increase ratio of paw volume of sham-operation group (%))/(the increase of paw volume of vehicle group (%)−the increase of paw volume of sham-operation group (%)) (Calculation Equation 2) (Test Results and Discussion)

In the case of `COc1cc(OS(C)(=O)=O)ccc1-c1ccc2c(c1COc1cc(F)ccc1C)N(C)C(=O)C(C)(C)N2` [Compound No. 1-1, 8-(5-Fluoro-2-methylphenoxymethyl)-7-(2-methoxy-4-methylsulfonyloxyphenyl)-1,3,3-trimethyl-3,4-dihydro-1H-quinoxalin-2-one], the Emax in assay [1] amounted to 92%. For the same compound, the “The inhibition ratio of the vascular hyper-permeability (%)” value in assay [2] is 36%. For the same compound, in assay [3], the “Angiogenic inhibition ratio (%)” value was found to be 31%.

Consider `COc1cc(OS(=O)(=O)C2CC2)ccc1-c1ccc2c(c1COc1cc(F)ccc1C)N(C)C(=O)C(C)(C)N2` [Compound No. 1-13, 7-(4-Cyclopropylsulfonyloxy-2-methoxyphenyl)-8-(5-fluoro-2-methyl-phenoxymethyl)-1,3,3-trimethyl-3,4-dihydro-1H-quinoxalin-2-one], for which the Emax in assay [1] was 100%. In addition, the “Angiogenic inhibition ratio (%)” value in assay [3] is 38%. For the same compound, the inhibition in vivo at 10 mg/kg in assay [4] came to 67%.

`CCCS(=O)(=O)Oc1ccc(-c2ccc3c(c2COc2cc([N+](=O)[O-])ccc2C)N(C)C(=O)C(C)(C)N3)c(OC)c1` [Compound No. 1-38, 7-(2-Methoxy-4-propylsulfonyloxyphenyl)-8-(2-methyl-5-nitrophenoxy-methyl)-1,3,3-trimethyl-3,4-dihydro-1H-quinoxalin-2-one] yielded an Emax in assay [1] of 94%. In addition, the “Angiogenic inhibition ratio (%)” value in assay [3] is given as 33%. Also, in assay [4], the inhibition in vivo at 10 mg/kg amounted to 50%.

On to `COc1cc(OS(=O)(=O)C2CCCC2)ccc1-c1ccc2c(c1CNc1cc(F)ccc1C)N(C)C(=O)C(C)(C)N2` [Compound No. 1-43, 7-(4-cyclopentylsulfonyloxy-2-methoxyphenyl)-8-(5-fluoro-2-methyl-phenylaminomethyl)-1,3,3-trimethyl-3,4-dihydro-1H-quinoxalin-2-one], for which, in assay [1], the maximal response (Emax) is 82%. The “Angiogenic inhibition ratio (%)” value in assay [3] came to 18%.

For `COc1ccccc1NCc1c(-c2ccc(OS(=O)(=O)C3CC3)cc2OC)ccc2c1N(C)C(=O)C(C)(C)N2` [Compound No. 2-2, 7-(4-Cyclopropylsulfonyloxy-2-methoxyphenyl)-8-(2-methoxy-phenylaminomethyl)-1,3,3-trimethyl-3,4-dihydro-1H-quinoxalin-2-one], the Emax in assay [1] came out at 86%. In addition, the “Angiogenic inhibition ratio (%)” value in assay [3] worked out at 41%. For the same compound, in assay [4], the inhibition in vivo at 10 mg/kg was 51%.

For `CCCS(=O)(=O)Oc1ccc(-c2ccc3c(c2CNc2ccccc2OC)N(C)C(=O)C(C)(C)N3)c(OC)c1` [Compound No. 2-7, 8-(2-Methoxyphenylaminomethyl)-7-(2-methoxy-4-propylsulfonyl-oxyphenyl)-1,3,3-trimethyl-3,4-dihydro-1H-quinoxalin-2-one], in assay [1], the Emax came out at 94%. For the same compound, in assay [2], the “The inhibition ratio of the vascular hyper-permeability (%)” value is reported as 35%. Besides, the inhibition in vivo at 10 mg/kg in assay [4] turned out to be 52%.

As a reminder, the Emax is the greatest response seen or fitted, relative to the assay's reference.
